{"source": "patent US10550111B2", "about": "“Pyrimidine urea compound containing isoxazolines and use thereof” (SHENYANG SINOCHEM AGROCHEMICALS R&D CO., LTD, priority 2014, dated 2020);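 for pre-emergence and post-emergence herbicidal activity against broad-leaf weeds and grass weeds: 0 means no visible effect and 100 means all weeds dead or not emerged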", "format_in_all_cases": "in vivo", "key": {"[1]": {"system": "Zinnia elegans Jacq.", "experiment": "Bioassay of herbicidal activity in greenhouse (further screening)", "how_it_was_run": "(§1)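 Pre- and post-emergence greenhouse test. Track sprayer, 500 L/hm^2, 1.95 kg/cm^2; EC formulation. Post-em at 2–3 leaves (grass), 2–4 leaves (broad-leaf). Readout: visual % inhibition.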"}, "[2]": {"system": "Echinochloa crus-galli (L.) Beauv.", "experiment": "Bioassay of herbicidal activity in greenhouse (further screening)", "how_it_was_run": "as §1"}, "[3]": {"system": "Abutilon theophrasti Medic.", "experiment": "Bioassay of herbicidal activity in greenhouse (further screening)", "how_it_was_run": "as §1"}, "[4]": {"system": "Setaria glauca (L.) Beauv.", "experiment": "Bioassay of herbicidal activity in greenhouse (further screening)", "how_it_was_run": "as §1"}, "[5]": {"system": "broad-leaf weeds and grass weeds", "experiment": "General screening of herbicidal activity in greenhouse", "details": "1000 g a.i./hm^2", "how_it_was_run": "as §1"}}, "data": [{"smiles": "Cn1c(C(F)(F)F)cc(=O)n(-c2cc(C3=NOC(C)(C(=O)OCC(F)(F)F)C3)c(Cl)cc2F)c1=O", "note": "(stereo not shown) [Compound 396]", "values": [{"measurement": "Growth inhibition rate, Post-emergence treatment, Zinnia elegans Jacq.", "setting": "[1]; dose 7.5 g a.i./hm^2", "value": 30, "unit": "%"}, {"measurement": "Growth inhibition rate, Post-emergence treatment, Zinnia elegans Jacq.", "setting": "[1]; dose 15 g a.i./hm^2", "value": 60, "unit": "%"}, {"measurement": "Growth inhibition rate, Post-emergence treatment, Zinnia elegans Jacq.", "setting": "[1]; dose 30.0 g a.i./hm^2", "value": 75, "unit": "%"}, {"measurement": "Growth inhibition rate, Post-emergence treatment, Zinnia elegans Jacq.", "setting": "[1]; dose 60.0 g a.i./hm^2", "value": 100, "unit": "%"}, {"measurement": "Growth inhibition rate, Post-emergence treatment, Zinnia elegans Jacq.", "setting": "[1]; dose 120.0 g a.i./hm^2", "value": 100, "unit": "%"}, {"measurement": "Growth inhibition rate, Post-emergence treatment, Echinochloa crus-galli (L.) Beauv.", "setting": "[2]; dose 7.5 g a.i./hm^2", "value": 20, "unit": "%"}, {"measurement": "Growth inhibition rate, Post-emergence treatment, Echinochloa crus-galli (L.) Beauv.", "setting": "[2]; dose 15 g a.i./hm^2", "value": 55, "unit": "%"}, {"measurement": "Growth inhibition rate, Post-emergence treatment, Echinochloa crus-galli (L.) Beauv.", "setting": "[2]; dose 30.0 g a.i./hm^2", "value": 95, "unit": "%"}, {"measurement": "Growth inhibition rate, Post-emergence treatment, Echinochloa crus-galli (L.) Beauv.", "setting": "[2]; dose 60.0 g a.i./hm^2", "value": 100, "unit": "%"}, {"measurement": "Growth inhibition rate, Post-emergence treatment, Echinochloa crus-galli (L.) Beauv.", "setting": "[2]; dose 120.0 g a.i./hm^2", "value": 100, "unit": "%"}, {"measurement": "Growth inhibition rate, Post-emergence treatment, Abutilon theophrasti Medic.", "setting": "[3]; dose 7.5 g a.i./hm^2", "value": 98, "unit": "%"}, {"measurement": "Growth inhibition rate, Post-emergence treatment, Abutilon theophrasti Medic.", "setting": "[3]; dose 15 g a.i./hm^2", "value": 100, "unit": "%"}, {"measurement": "Growth inhibition rate, Post-emergence treatment, Abutilon theophrasti Medic.", "setting": "[3]; dose 30.0 g a.i./hm^2", "value": 100, "unit": "%"}, {"measurement": "Growth inhibition rate, Post-emergence treatment, Abutilon theophrasti Medic.", "setting": "[3]; dose 60.0 g a.i./hm^2", "value": 100, "unit": "%"}, {"measurement": "Growth inhibition rate, Post-emergence treatment, Abutilon theophrasti Medic.", "setting": "[3]; dose 120.0 g a.i./hm^2", "value": 100, "unit": "%"}, {"measurement": "Growth inhibition rate, Post-emergence treatment, Setaria glauca (L.) Beauv.", "setting": "[4]; dose 7.5 g a.i./hm^2", "value": 25, "unit": "%"}, {"measurement": "Growth inhibition rate, Post-emergence treatment, Setaria glauca (L.) Beauv.", "setting": "[4]; dose 15 g a.i./hm^2", "value": 55, "unit": "%"}, {"measurement": "Growth inhibition rate, Post-emergence treatment, Setaria glauca (L.) Beauv.", "setting": "[4]; dose 30.0 g a.i./hm^2", "value": 85, "unit": "%"}, {"measurement": "Growth inhibition rate, Post-emergence treatment, Setaria glauca (L.) Beauv.", "setting": "[4]; dose 60.0 g a.i./hm^2", "value": 98, "unit": "%"}, {"measurement": "Growth inhibition rate, Post-emergence treatment, Setaria glauca (L.) Beauv.", "setting": "[4]; dose 120.0 g a.i./hm^2", "value": 100, "unit": "%"}, {"measurement": "pre-emergence and post-emergence herbicidal activity against broad-leaf weeds and grass weeds", "setting": "[5]", "value": "good"}]}, {"smiles": "CSCCC(=O)OCC1(C)CC(c2cc(-n3c(=O)cc(C(F)(F)F)n(C)c3=O)c(F)cc2Cl)=NO1", "note": "(stereo not shown) [Compound 54]", "values": [{"measurement": "Growth inhibition rate, Post-emergence treatment, Zinnia elegans Jacq.", "setting": "[1]; dose 37.5 g a.i./hm^2", "value": 90, "unit": "%"}, {"measurement": "Growth inhibition rate, Post-emergence treatment, Zinnia elegans Jacq.", "setting": "[1]; dose 150 g a.i./hm^2", "value": 100, "unit": "%"}, {"measurement": "Growth inhibition rate, Post-emergence treatment, Zinnia elegans Jacq.", "setting": "[1]; dose 600 g a.i./hm^2", "value": 100, "unit": "%"}, {"measurement": "Growth inhibition rate, Pre-emergence treatment, Zinnia elegans Jacq.", "setting": "[1]; dose 37.5 g a.i./hm^2", "value": 0, "unit": "%"}, {"measurement": "Growth inhibition rate, Pre-emergence treatment, Zinnia elegans Jacq.", "setting": "[1]; dose 150 g a.i./hm^2", "value": 20, "unit": "%"}, {"measurement": "Growth inhibition rate, Pre-emergence treatment, Zinnia elegans Jacq.", "setting": "[1]; dose 600 g a.i./hm^2", "value": 60, "unit": "%"}, {"measurement": "Growth inhibition rate, Post-emergence treatment, Echinochloa crus-galli (L.) Beauv.", "setting": "[2]; dose 37.5 g a.i./hm^2", "value": 10, "unit": "%"}, {"measurement": "Growth inhibition rate, Post-emergence treatment, Echinochloa crus-galli (L.) Beauv.", "setting": "[2]; dose 150 g a.i./hm^2", "value": 20, "unit": "%"}, {"measurement": "Growth inhibition rate, Post-emergence treatment, Echinochloa crus-galli (L.) Beauv.", "setting": "[2]; dose 600 g a.i./hm^2", "value": 75, "unit": "%"}, {"measurement": "Growth inhibition rate, Pre-emergence treatment, Echinochloa crus-galli (L.) Beauv.", "setting": "[2]; dose 37.5 g a.i./hm^2", "value": 0, "unit": "%"}, {"measurement": "Growth inhibition rate, Pre-emergence treatment, Echinochloa crus-galli (L.) Beauv.", "setting": "[2]; dose 150 g a.i./hm^2", "value": 15, "unit": "%"}, {"measurement": "Growth inhibition rate, Pre-emergence treatment, Echinochloa crus-galli (L.) Beauv.", "setting": "[2]; dose 600 g a.i./hm^2", "value": 80, "unit": "%"}, {"measurement": "Growth inhibition rate, Post-emergence treatment, Abutilon theophrasti Medic.", "setting": "[3]; dose 37.5 g a.i./hm^2", "value": 100, "unit": "%"}, {"measurement": "Growth inhibition rate, Post-emergence treatment, Abutilon theophrasti Medic.", "setting": "[3]; dose 150 g a.i./hm^2", "value": 100, "unit": "%"}, {"measurement": "Growth inhibition rate, Post-emergence treatment, Abutilon theophrasti Medic.", "setting": "[3]; dose 600 g a.i./hm^2", "value": 100, "unit": "%"}, {"measurement": "Growth inhibition rate, Pre-emergence treatment, Abutilon theophrasti Medic.", "setting": "[3]; dose 37.5 g a.i./hm^2", "value": 0, "unit": "%"}, {"measurement": "Growth inhibition rate, Pre-emergence treatment, Abutilon theophrasti Medic.", "setting": "[3]; dose 150 g a.i./hm^2", "value": 35, "unit": "%"}, {"measurement": "Growth inhibition rate, Pre-emergence treatment, Abutilon theophrasti Medic.", "setting": "[3]; dose 600 g a.i./hm^2", "value": 90, "unit": "%"}, {"measurement": "Growth inhibition rate, Post-emergence treatment, Setaria glauca (L.) Beauv.", "setting": "[4]; dose 37.5 g a.i./hm^2", "value": 35, "unit": "%"}, {"measurement": "Growth inhibition rate, Post-emergence treatment, Setaria glauca (L.) Beauv.", "setting": "[4]; dose 150 g a.i./hm^2", "value": 70, "unit": "%"}, {"measurement": "Growth inhibition rate, Post-emergence treatment, Setaria glauca (L.) Beauv.", "setting": "[4]; dose 600 g a.i./hm^2", "value": 98, "unit": "%"}, {"measurement": "Growth inhibition rate, Pre-emergence treatment, Setaria glauca (L.) Beauv.", "setting": "[4]; dose 37.5 g a.i./hm^2", "value": 0, "unit": "%"}, {"measurement": "Growth inhibition rate, Pre-emergence treatment, Setaria glauca (L.) Beauv.", "setting": "[4]; dose 150 g a.i./hm^2", "value": 20, "unit": "%"}, {"measurement": "Growth inhibition rate, Pre-emergence treatment, Setaria glauca (L.) Beauv.", "setting": "[4]; dose 600 g a.i./hm^2", "value": 60, "unit": "%"}, {"measurement": "pre-emergence and post-emergence herbicidal activity against broad-leaf weeds and grass weeds", "setting": "[5]", "value": "good"}]}]}
